Experimental data taken from patent US11707557B2, “Compositions and devices incorporating water-insoluble therapeutic agents and methods of the use thereof” (COOK MEDICAL TECHNOLOGIES LLC, priority 2014, dated 2023).
In brackets after ≈: the same amount, converted by molar mass. Where two headings read alike, the source gives them in different places.

How the values were obtained:
[1] = test system: canine kidney (mdck) cells; experiment: Uptake of paclitaxel into mdck cells with or without EGCG; format: cell-based
mdck-mdr cells [2] = experiment: Uptake of paclitaxel into drug resistant mdck-mdr cells with or without EGCG; format: cell-based, canine
[3] = 24 h
Protocol: (§3) PBS (EGCG) or water (tannic acid) was added and the final solution filtered through a 0.22 micron filter to remove any particulates. The solutions were analyzed for drug concentration using HPLC.
(§4) PBS (EGCG) or water (tannic acid) was added and the final solution filtered through a 0.22 micron filter to remove particulates. The solution was then analyzed for drug concentration using absorbance spectroscopy at 450 nm.
(§5) PBS (EGCG) or water (tannic acid) was added and the final solution was filtered through a 0.22 micron filter to remove any particulates and the solution was analyzed for drug concentration using HPLC.
(§6) PBS (EGCG) or water (tannic acid) was added and the final solution filtered through a 0.22 micron filter to remove any particulates and the solution was analyzed for drug concentration using HPLC.
(§7) PBS (EGCG) or water (Tannic acid) was added and the final solution was filtered through a 0.22 um filter to remove any particulates and the solution was analyzed for drug concentration using HPLC.
(§8) Method: drug and EGCG or tannic acid were dried down from acetonitrile (or methanol for tannic acid) solutions at various drug to EGCG or tannic acid ratios. PBS (EGCG) or water (Tannic acid pH adjusted to 7) was added and the final solution was filtered through a 0.22 um filter to remove any particulates and the solution was analyzed for drug concentration using HPLC methods.

pig bladder tissue = experiment: Uptake of paclitaxel into pig bladder tissue from methoxypolyethylene glycol pastes with EGCG or tannic acid; format: in vitro ADME; conditions: MEPEG paste with EGCG or tannic acid, 5% drug, urothelial or perivascular side, 2 hours
Protocol: Methods: Fresh ex vivo pig bladders were cut into 2 cm diameter pieces and laid on franz diffusions cells. […] 100 mg of paste was applied to either the perivascular or urothelial side of the bladder tissue and 200 ul of tyrodes buffer pH 7.4 was added. The tissue was incubated for 2 hours at 37° C. and then the diffusion cell was disassembled, the tissue was washed free of remaining paste with excess tyrodes and the tissues were then frozen and cryosectioned for radioactivity counting by liquid scintillation methods.

mdck-mdr cells [4] = experiment: Uptake and transport of docetaxel through MDCK-MDR cell monolayers (transwell); format: in vitro ADME, canine; conditions: EGCG-docetaxel solution 250 micrograms/ml, 2 hours 37° C., compared to tween or diblock copolymer micellar solutions
Source text: (§1) The canine kidney cells, known as MDCK cells, are a non cancer proliferating cell line from canine kidneys. The MDR derivative of these cells is a multi-drug resistant version. The cell lines MDCK and MDCK-MDR are routinely used in the field of drug resistance because in the MDCK cells drugs can accumulate and kill the cells whereas the MDR cells contain drug efflux proteins that efflux the drug so that much higher drug doses are needed to maintain intracellular concentrations sufficient to kill these cells. […]
(§2) MDCK cells were seeded at 10000 cells per transwell membrane (Becton and Dickenson: 0.3 microns, 1 cm diameter) and grown for one week until a continuous monolayer was present. Drug at 250 micrograms/ml (doped with ^3H docetaxel, with carrier (tween, diblock (2000 40-60) PDLLA-mepeg or EGCG), all in hanks buffer, were added to the top well (0.4 ml) with 1.2 ml of hanks buffer in the base well. The wells were incubated at 37° C. for two hours. The transwells were then disassembled and the amount of drug in the base reservoir (transported through the cells) or in the cells (determined by dissolution of the filter after 3 washes in hanks buffer) was determined by liquid scintillation counting.

[5] = test system: Human umbilical vein endothelial cells (HUVEC); experiment: Accumulation of docetaxel in HUVEC cells and effect of ultrasound; format: cell-based
Source text: Human umbilical vein endothelial cells (HUVEC) and the associated culture media were obtained from Lonza Chemicals (Basel, Switzerland). All cells were applied to 48 well plates in respective media at a concentration of 5000 cells per well or filter. The cells were allowed to equilibrate for 3 days at which time they became approximately 80% confluent. In the 48 well plates, only 24 wells were used per plate so that wells with cells appeared in a checkerboard pattern.
After 2 days, cells were ready for drug incubation with or without ultrasound treatment. The drug solutions (including radiolabelled docetaxel) were applied to the cells (0.5 ml) for 2 hours. Some cells were then ultrasonicated. Briefly, cells received a single 10-s burst of ultrasound at 4 MHz with a power density of 30 W/cm^2.
After ultrasound treatment, the drug solution was immediately removed and all cells were washed three times with 500 ul of HBSS. The amount of docetaxel retained in the cells was determined by lysing the cells in 200 ul of lysis buffer (2% Triton X100 containing 33% DMSO) and quantitation by liquid scintillation counting.

MDCK cells = experiment: Uptake and transport of docetaxel through MDCK cell monolayers (transwell); format: in vitro ADME, canine; conditions: EGCG-docetaxel solution 250 micrograms/ml, 2 hours 37° C., compared to tween or diblock copolymer micellar solutions
Source text: as §1, §2

[6] = Solubility of drug in EGCG or tannic acid solutions (dried down, PBS or water added, 0.22 micron filtered, HPLC or absorbance)
Protocol: as §3, §4, §5, §6, §7, §8

[7] = co-incubated with EGCG at 50 microg/ml

Protocol for physchem: as §3, §4, §5, §6, §7, §8

For `CC(=O)O[C@H]1C(=O)[C@@]2(C)[C@H]([C@H](OC(=O)c3ccccc3)[C@]3(O)C[C@H](OC(=O)[C@H](O)[C@@H](NC(=O)c4ccccc4)c4ccccc4)C(C)=C1C3(C)C)[C@]1(OC(C)=O)CO[C@@H]1C[C@@H]2O` [paclitaxel], which solubility (physchem; aqueous with cosolvent or surfactant or cyclodextrin, thermodynamic from solid, drug concentration solubilised at maximum EGCG concentration) is on record?
The solubility was ~1000 µg/mL (≈ 1170 µM).

And the solubility (physchem; aqueous with cosolvent or surfactant or cyclodextrin, thermodynamic from solid, drug concentration solubilised at maximum tannic acid concentration)?
Its solubility is ~4800 µg/mL (≈ 5620 µM).

What about the solubility (physchem; water, free solubility in water) of the same molecule?
The solubility was 1 µg/mL (≈ 1.17 µM).

What about the “paclitaxel level in cells” value [1, 7] of the same molecule?
The value was ≤ 2000 pg/mg.

What about the “paclitaxel level in cells” value ([1]; paclitaxel alone) of the same molecule?
Its value is “approximately 200 pg/mg cellular protein”.

And the “increase in drug uptake with EGCG” value ([1]; with EGCG versus alone)?
The value was 10 fold.

What about the “paclitaxel level in cells” value (mdck-mdr cells [2]; [7]) of the same molecule?
Its value is ≤ 2000 pg/mg.

And the “paclitaxel level in cells” value (mdck-mdr cells [2]; paclitaxel alone)?
Its value is < 200 pg/mg cellular protein.

What about the “increase in drug uptake with EGCG” value (mdck-mdr cells [2]; with EGCG versus alone) of the same molecule?
The value was 10 fold.

And the “stability of EGCG solutions of the drug” value [3]?
The value was “not stable over 24 hours”.

And the “stability of tannic acid solutions of the drug” value [3]?
Its value is “stable for 24 hours”.

And the “penetration of paclitaxel into the bladder tissue” value (pig bladder tissue)?
Its value is “allowed for the penetration”.

With `CC(=O)O[C@@]12CO[C@@H]1C[C@H](O)[C@@]1(C)C(=O)[C@H](O)C3=C(C)[C@@H](OC(=O)[C@H](O)[C@@H](NC(=O)OC(C)(C)C)c4ccccc4)C[C@@](O)([C@@H](OC(=O)c4ccccc4)[C@H]21)C3(C)C` [docetaxel] as the molecule, how does the “amount of docetaxel accumulated in the cells or transported through the cells” value (mdck-mdr cells [4]) read?
The value was “increased”.

What about the “effect of ultrasound on uptake of drug into cells” value ([5]; 10-s burst, 4 MHz, 30 W/cm^2, all formulations) of the same molecule?
The value was “increased the uptake”.

And the “uptake of docetaxel from ECGC formulations relative to micellar formulation” value ([5]; 2 hours incubation)?
Its value is “approximately 4 fold”.

What about the “amount of docetaxel accumulated in the cells or transported through the cells” value (MDCK cells) of the same molecule?
The value was “increased”.

What about the solubility ([6]; EGCG solution (200 mg/ml) in PBS, aqueous with cosolvent or surfactant or cyclodextrin, thermodynamic from solid, drug concentration solubilised at maximum EGCG concentration, EGCG 200 mg per ml, PBS) of the same molecule?
The solubility was ~1500 µg/mL (≈ 1860 µM).

And the “effect of temperature on solubility” value ([6]; EGCG solutions)?
The value was “no effect of temperature”.

And the “stability of EGCG solutions of the drug” value ([6]; EGCG solutions, 24 hours)?
Its value is “stable over 24 hours”.

What about the “stability of tannic acid solutions of the drug” value ([6]; tannic acid concentrations above 150 mg/ml, 24 hrs) of the same molecule?
The value was “not stable over 24 hrs”.

What about the “effect of temperature on solubility” value ([6]; tannic acid solutions, 37° C. or 50° C. compared to 23° C.) of the same molecule?
Its value is “no effect of temperature”.

What about the solubility ([6]; water, free solubility in water, no EGCG or tannic acid) of the same molecule?
The solubility was 5 to 7 µg/mL (≈ 6.19 to 8.66 µM).
